Test results as given in patent publication US4968686A, “Acyclic pyrrolo [2,3-d]pyrimidine analogs as antiviral agents” (The Regents of The University of Michigan, priority 1989, dated 1990).
Where two headings read alike, the source gives them in different places.

Columns and labels:
in vitro = assay type: cell-based, human; settings: human, kb cells
Procedure: KB or HFF cells were planted using a Costar Transplate-96 (Costar, Cambridge, Mass.) in Costar 96-well cluster dishes at a concentration of 10,000 to 12,000 cells per well. Wells were suspended in 200 μl of medium [MDM(H) plus 0.7 gm/liter NaCHO3 supplemented with 10% calf serum] per well. After incubation of 16 to 24 hours at 37° C. in a humidified atmosphere of 4% CO2 in air, […] of medium was removed per well. One-hundred μl of medium with or without compounds in twice their final concentrations was added to each well using a Titertek Multichannel Pipette. Final concentrations of compounds ranged from 0.1 to 320 μM. Fifty μl of medium containing radioactive precursors also was added to each well to give a final concentration to 1 to 3 μCi/ml of labeled precursor. [^3 H]Thd was diluted with unlabeled dThd to give a final concentration of 3 or 6 μM.
Logarithmic cell growth occurred during this time with continual uptake of labeled precursors. At the end of the incubation period, cells were individually harvested from each well using a Skatron Cell harvester (Skatronh, Inc., Sterling, Va.). Cultures for individual wells were harvested onto filter paper and washed free of unincorporated label with nine sequential washes with 5% trichloroacetic acid, nine washes with water, and nine with ethanol using the Skatron unit. Filters were dried, circles from individual cultures were punched from the filter mat and placed into mini-vials. Liquid scintillation solution was added, and radioactivity determined in a Beckman model LS8100 liquid scintillation spectrometer. All samples were counted for 2.0 minutes each, with three rounds of counting. Counts per minute were determined following the application of statistical methods to eliminate count rates which fell outside distribution limits defined by Chauvenet's rejection criterion.
All analyses were performed in triplicate. That is, three culture wells were used per time point, radioactive precursor, and drug concentration in all experiments. Results from triplicate assays were converted to percent of control and plotted as log dose-response curves from which 50% inhibitor (I50) concentrations were interpolated. Three concentrations of vidarabine were included on all plates as a positive control.
(§1) Dose-response relationships were used to compare drug effects. These were constructed by linearly regressing the percent inhibition of parameters derived in the preceding sections against log drug concentrations. The 50% inhibitory (I50) concentrations were calculated from the regression lines using the methods described by Goldstein. See Goldstein, A., Biostatistics: An Introductory Text, MacMillan, N.Y., 1964, pp. 156-161. Along with the I50 concentration for visual cytotoxicity, the averaged I50 concentrations are compared to I50 concentrations for inhibition for HCMV or HSV-1 replication. Compounds for which the ratio of cytotoxicity I50 concentrations to antiviral I50 concentrations (in vitro therapeutic index) were greater than 10, were considered for further study.

HSV-1 = HSV-1 titer (yield) reduction assay; assay type: cell-based, herpes simplex virus type 1 in KB cells; settings: read-out: HSV-1 Yield, 90% inhibitory concentration (I90)
Source text: (§2) The 148 strain of HSV-1 was used in most experiments and was provided by Dr. T. W. Schafer of Schering corporation. The HF strain of HSV-1 was used in selected experiments and was obtained from Dr. G. H. Cohen, University of Pennsylvania. The Towne strain, plaque-purified isolate Po, of HCMV was a gift of Dr. Mark Stinski, University of Iowa.
(§3) HSV-1 was titered using monolayer cultures of BSC-1 cells. Cells were planted at 3×10^5 cells/well using 6-well cluster dishes. MEM(E) supplemented with 10% fetal bovine serum was employed as medium. After 22-24 hours, cells were 90% confluent and were inoculated in triplicate using at least three ten-fold dilutions with 0.2 ml of the virus suspension to be assayed and incubated in a humidified 4% CO2 […] atmosphere for one hour to permit viral adsorption. Following virus adsorption, the cell sheet was overlayed with 5 ml of MEM(E) with 5% serum plus 0.5% methocel (4000 CPS) and incubated an additional two to three days. Cells were fixed and stained with 0.1% crystal violet in 20% methanol and macroscopic plaques enumerated.
(§4) Plaque reduction experiments were HSV-1 were performed using monolayer cultures of BSC-1 cells. The assay was performed exactly as described above except that the 0.2 ml virus suspension contained approximately 100 p.f.u. of HSV-1. Compounds to be tested were dissolved in the overlay medium at concentrations usually ranging from 0.1 to 100 μM in half-or-one logarithm10 dilutions. Titer reduction assays were performed by planting KB cells in 25 cm^2 plastic tissue culture flasks 10 to 24 hours prior to infection. At the onset of experiments, logarithmically growing replicate monolayer cultures were 60 to 80% confluent and contained 2.5 to 4.5×10^6 cells/flask. Medium was decanted and the cultures were infected with 2 to 10 p.f.u. of HSV-1 per cell. Virus was contained in 1.0 ml of VGM supplemented with 5% fetal bovine serum. After a 1 hour adsorption period at […], the cell sheet was rinsed twice with 2 ml of VGM without serum to remove unadsorbed virus and 5 ml of VGM containing drugs at three to five selected concentrations added in duplicate. Following an 18- to 22-hour incubation at 37° C., infected monolayers were treated with EDTA-trypsin to suspend the cells; aliquots were removed, subjected to three cycles of freezing and thawing, and stored at -76° C. for subsequent virus assay. Virus was titered on BSC-1 cells as described above.
Drug effects were calculated as a percentage of the reduction in virus titers in the presence of each drug concentration compared to the titer obtained in the absence of drug. Acylovir was used as a positive control in all experiments.
as §1

HSV-1 HF strain = test: HSV-1 reduction assay, HF strain; assay type: cell-based, herpes simplex virus type 1 (HF strain); settings: Human alphaherpesvirus 1; read-out: I50 with HF strain of HSV-1
Source text: as §2, §3, §4
Dose-response relationships were used to compare drug effects. These were constructed by linearly regressing the percent inhibition of parameters derived in the preceding sections against log drug concentrations. The 50% inhibitory (I50) concentrations were calculated from the regression lines using the methods described by Goldstein. […]

KB cells = test: Growth of KB cells (population doubling times); assay type: cell-based, human; settings: for Population Doubling time: KB cells, control 23 hr
Procedure: (§5) Population doubling times and cell viability were measured in uninfected HFF and/or KB cells. Cells were planted in replicate 6-well plastic tissue culture dishes or in 25 cm^2 flasks as described above in part 1. Following an incubation period during which cells attached to the substrate, medium was decanted, the cell sheet rinsed once with HBS, and fresh medium added. The medium consisted of MEM(E) with 1.1 gm NaHCO3 /liter and 10% fetal bovine or calf serum plus appropriate log or half-log concentrations of drug. After additional periods of incubation from 1 to 72 hours at 37° C., cells were harvested by means of 0.05% trypsin plus 0.02% EDTA in a HEPES-buffered salt solution. Cells were enumerated using either a Coulter counter or a hemocytometer and viability determining using trypsan blue dye exclusion.
In more extensive cytotoxicity testing, the halogenated compounds were tested for effects on the growth of KB cells. Populations doubling times were calculated from the logarithmic portions of growth curves and were as follows: […]

HFF cells = test: Growth of HFF cells; assay type: cell-based, human; settings: for HFF population doublings in 70 hours: 100 μM, control two doublings
Procedure: as §5
The effect of these compounds on the growth of human diploid fibroblasts (HFF cells) was less pronounced. During a 70-hour incubation, control cells underwent two doublings. […] A 100 μM concentration reduced the number of cells by less than 10%.

[1] = Human alphaherpesvirus 1, Table 1, I90, strain S148, KB cells
[2] = comparison with UMJD 102 / UMJD 183

SMILES	CC50 (in vitro)	IC90 (HSV-1; [1])	IC50 (HSV-1 HF strain)	Population Doubling time (KB cells; 1.0 μM)	Population Doubling time (KB cells; 10.0 μM)	effect on KB cell growth (in words) (KB cells; [2])	further results
Nc1nc2c(ncn2COCCO)c(=O)[nH]1 [Acyclovir, reference compound]	> 100 µM	7 µM	36 µM	–	–	–	–
Nc1nc(O)c2ncn(COC(CO)CO)c2n1 [Ganciclovir (DHPG), reference compound]	1000 µM	–	–	–	–	–	IC90 (HSV-1; Human alphaherpesvirus 1, KB): 1.2 µM
Nc1ncnc2c1c(Cl)cn2COCCO [UMJD 100, 4-Amino-5-chloro-7-(2-hydroxyethoxymethyl)pyrrolo[2,3-d]-pyrimidine]	350 µM	50 µM	> 100 µM	25 h	25 h	–	effect on KB cell growth (in words) (KB cells; 100 μM): only a minor extent; Population Doubling time (KB cells; 100.0 μM): 27 h; effect on number of HFF cells present at 70 hours (in words) (HFF cells; 10 or 32 μM, 70 hours): no decrease in the number of cells
Nc1ncnc2c1c(Br)cn2COCCO [UMJD 102, 4-Amino-5-bromo-7-(2-hydroxyethoxymethyl)pyrrolo[2,3-d]-pyrimidine]	100 µM	30 µM	28 µM	43 h	84 h	cytostatic	Population Doubling time (KB cells; 0.1 μM): 30 h; minimal effective concentration (KB cells; Homo sapiens, KB, read-out: lowest concentration that inhibited growth of KB cells): 0.1 µM; effect on growth of HFF cells relative to UMJD 100 (in words) (HFF cells): more pronounced; HFF population doublings in 70 hours (HFF cells; 70 hours): one population doubling
Nc1ncnc2c1c(I)cn2COCCO [UMJD 104, 4-Amino-5-iodo-7-(2-hydroxyethoxymethyl)pyrrolo[2,3-d]-pyrimidine]	94 µM	> 100 µM	54 µM	25 h	30 h	–	Population Doubling time (KB cells; 0.1 μM): 26 h; effect on growth of HFF cells relative to UMJD 100 (in words) (HFF cells): more pronounced; HFF population doublings in 70 hours (HFF cells; 70 hours): one population doubling
Nc1ncnc2c1c(Br)cn2COC(CO)CO [UMJD 183, 4-amino-5-bromo-7-[(1,3-dihydroxy-2-propoxy)methyl]-pyrrolo[2,3-d]pyrimidine]	25 µM	17 µM	–	–	–	inhibited, but to a lesser extent	duration of KB cell growth in presence of drug before slowing or stopping (KB cells): up to 20 hours; KB cell growth for 50 hours (in words) (KB cells; up to 32 μM, 50 hours): at a reduced rate
Nc1ncnc2c1c(Cl)cn2COC(CO)CO [UMJD 186, 4-amino-5-chloro-7-[(1,3-dihydroxy-2-propoxy)-methyl]pyrrolo[2,3-d]pyrimidine]	> 100 µM	3.5 µM	–	–	–	–	–
OCC(CO)OCn1cc(Br)c2c(NO)ncnc21 [UMJD 299, 4-hydroxylamino-5-bromo-7-[(1,3-dihydroxy-2-propoxy)methyl]pyrrolo[2,3-d]pyrimidine]	357 µM	> 100 µM	–	–	–	considerably lesser effects on cell growth	KB cell growth rate (in words) (KB cells; 10 μM): nearly control rates
